We go through eleven compounds from publication PMC8591627 (ACS infectious diseases, 2021).

The test system of data set [1] is JSF-3151–resistant strains. Kind of data set: MIC versus JSF-3151-resistant strains compared to the parental strain. The format is cell-based, Staphylococcus aureus.
The next data set deals with MRSA ATCC 43300. Kind of data set: MIC, drug susceptibility assay. The data set is classed as cell-based, Staphylococcus aureus. The following applies: 18 h; for MRSA ATCC 43300 MIC: 37 °C, visual inspection.
Another data set has as its system MSSA ATCC 25923. As to the kind of experiment: MIC, drug susceptibility assay. The data set is classed as cell-based, Staphylococcus aureus. The note with it: 18 h, 37 °C, visual inspection.
Another data set relates to Vero cells. The data set is classed as cell-based. The following applies: 72 h; for CC50: read-out: Vero cell CC50.
The subject of another data set is S. aureus. The note with it: 8x MIC; ref [13], [35]–[36]; cited from earlier work.
For another data set, the system named is MRSA COL strain. Kind of data set: Mouse peritonitis-sepsis model. The data set is classed as in vivo, Staphylococcus aureus. The following applies: single dose 100 mg/kg subcutaneous.

Several values for one entry are separate records, joined by “and”; a condition that tells them apart may be missing. Equal entries are not always repeated.

`CC1(C)S[C@@H]2[C@H](NC(=O)[C@H](N)c3ccccc3)C(=O)N2[C@H]1C(=O)O` [Ampicillin]: in data set [1], the “MIC versus JSF-3151–resistant strains compared to parental strain” value was “same MIC”.
Still for that read-out and setting: as for `C[C@H]1c2cccc(O)c2C(=O)C2=C(O)[C@]3(O)C(=O)C(C(N)=O)=C(O)[C@@H](N(C)C)[C@@H]3[C@@H](O)[C@@H]21` [Doxycycline], the entry is “same MIC”.
`CC(=O)N1CCN(c2cc3c(cc2F)c(=O)c(C(=O)N2CCCc4ccccc42)cn3C2CC2)CC1` [JSF-3145]: in the data set on MRSA ATCC 43300 (listed as Z27692293 (3145)), the “MRSA ATCC 43300 MIC” value was 12 μg/mL and 25 μM. Further, the “MSSA ATCC 25923 MIC” value in the data set with MSSA ATCC 25923 (listed as Z27692293 (3145)) was 12 μg/mL and 25 μM. Moreover, in the data set on Vero cells, the “Vero cell CC50” value was over 50 µg/mL and the CC50 is over 100 µM.
Turning to `O=C(Nc1cccc(N2CCOC2=O)c1)c1ccc([N+](=O)[O-])o1` [JSF-3153], the “MRSA ATCC 43300 MIC” value with MRSA ATCC 43300 (listed as Z364195972 (3153)) is 3.1 μg/mL and 10 μM. The “MSSA ATCC 25923 MIC” value with MSSA ATCC 25923 (listed as Z364195972 (3153)) was 6.2 μg/mL and 20 μM. In the data set with Vero cells, the “Vero cell CC50” value worked out at 1.6 µg/mL and the CC50 stood at 5 µM.
As to `CN(C)c1nnc(-c2ccc(NC(=O)c3ccc([N+](=O)[O-])o3)cc2)o1` [JSF-3157], the “MRSA ATCC 43300 MIC” value in the data set on MRSA ATCC 43300 (listed as Z1542057255 (3157)) is 6.2 μg/mL and 18 μM. Further, in the data set with MSSA ATCC 25923 (listed as Z1542057255 (3157)), the “MSSA ATCC 25923 MIC” value was 6.2 μg/mL and 18 μM. In the data set on Vero cells, the “Vero cell CC50” value was 0.78 µg/mL and the cytotoxic concentration (CC50) turned out to be 2 µM.
Turning to `Nc1ccc(C(=O)Nc2cc(Cl)cc3cccnc23)s1` [JSF-3640, 5-amino-N-(6-chloroquinolin-8-yl)thiophene-2-carboxamide], in the data set on MRSA ATCC 43300 (Staphylococcus aureus, ATCC43300|MRSA, read-out: MRSA ATCC 43300 MIC), the MIC was over 50 µg/mL.
Turning to `CO[C@H]1/C=C/O[C@@]2(C)Oc3c(C)c(O)c4c(O)c(c(/C=N/N5CCN(C)CC5)c(O)c4c3C2=O)NC(=O)/C(C)=C\C=C\[C@H](C)[C@H](O)[C@@H](C)[C@@H](O)[C@@H](C)[C@H](OC(C)=O)[C@@H]1C` [Rifampicin], in data set [1], the “MIC versus JSF-3151–resistant strains compared to parental strain” value is on record as “same MIC”.
For the compound `O=C(O)c1cn(C2CC2)c2cc(N3CCNCC3)c(F)cc2c1=O` [ciprofloxacin], in the data set with S. aureus, the resistance frequency is 1 x 10^−9 to 1 x 10^−6.
On to `CC[C@H]1OC(=O)[C@H](C)[C@@H](O[C@H]2C[C@@](C)(OC)[C@@H](O)[C@H](C)O2)[C@H](C)[C@@H](O[C@@H]2O[C@H](C)C[C@H](N(C)C)[C@H]2O)[C@](C)(O)C[C@@H](C)C(=O)[C@H](C)[C@@H](O)[C@]1(C)O` [erythromycin], for which, in data set [1], the “MIC versus JSF-3151–resistant strains compared to parental strain” value is on record as “same MIC”.
For `CC(=O)NC[C@H]1CN(c2ccc(N3CCOCC3)c(F)c2)C(=O)O1` [linezolid], in the data set on S. aureus, the resistance frequency is 1 x 10^−9 to 1 x 10^−6.
For the compound `CN[C@H](CC(C)C)C(=O)N[C@H]1C(=O)N[C@@H](CC(N)=O)C(=O)N[C@H]2C(=O)N[C@H]3C(=O)N[C@H](C(=O)N[C@H](C(=O)O)c4cc(O)cc(O)c4-c4cc3ccc4O)[C@H](O)c3ccc(c(Cl)c3)Oc3cc2cc(c3O[C@@H]2O[C@H](CO)[C@@H](O)[C@H](O)[C@H]2O[C@H]2C[C@](C)(N)[C@H](O)[C@H](C)O2)Oc2ccc(cc2Cl)[C@H]1O` [vancomycin], the “mice surviving 3 d post-administration” value in the data set on MRSA COL strain was 12/12. The “MIC versus JSF-3151–resistant strains compared to parental strain” value in data set [1] is “same MIC”. The resistance frequency with S. aureus is 1 x 10^−9 to 1 x 10^−6.

What is called CC50 is the concentration at which the toxic effect on the cells reaches its halfway point. The term MIC denotes the least concentration at which growth counts as inhibited.
